In ChEMBL document CHEMBL1143081, “Identification of 1S,2R-milnacipran analogs as potent norepinephrine and serotonin transporter inhibitors” (Bioorg Med Chem Lett, 2008):

Columns and labels:
[1] = molecular target: Sodium-dependent noradrenaline transporter (Homo sapiens, UniProt P23975)
[2] = molecular target: Sodium-dependent serotonin transporter (Homo sapiens, UniProt P31645)
[3] = molecular target: Sodium-dependent dopamine transporter (Homo sapiens, UniProt Q01959)
[4] = Lipophilicity, Log D of the compound; type: physicochemical; conditions: octanol/water
[5] = Elimination half life in human; type: ADME, organism-based; conditions: in vivo
[6] = Partition coefficient, log P of the compound; type: physicochemical; conditions: octanol/water
[7] = Metabolic stability in human liver microsomes assessed as systemic clearance; type: ADME, Microsome
clinical = conditions: human, in vivo, po
Description: Oral bioavailability in human

[8] = Renal clearance in human; type: ADME, organism-based, Kidney; conditions: in vivo, read-out: CL_renal
[9] = Apparent permeability across human Caco-2 cells; type: ADME, cell-based

Sequence of Sodium-dependent dopamine transporter (Q01959 whole entry): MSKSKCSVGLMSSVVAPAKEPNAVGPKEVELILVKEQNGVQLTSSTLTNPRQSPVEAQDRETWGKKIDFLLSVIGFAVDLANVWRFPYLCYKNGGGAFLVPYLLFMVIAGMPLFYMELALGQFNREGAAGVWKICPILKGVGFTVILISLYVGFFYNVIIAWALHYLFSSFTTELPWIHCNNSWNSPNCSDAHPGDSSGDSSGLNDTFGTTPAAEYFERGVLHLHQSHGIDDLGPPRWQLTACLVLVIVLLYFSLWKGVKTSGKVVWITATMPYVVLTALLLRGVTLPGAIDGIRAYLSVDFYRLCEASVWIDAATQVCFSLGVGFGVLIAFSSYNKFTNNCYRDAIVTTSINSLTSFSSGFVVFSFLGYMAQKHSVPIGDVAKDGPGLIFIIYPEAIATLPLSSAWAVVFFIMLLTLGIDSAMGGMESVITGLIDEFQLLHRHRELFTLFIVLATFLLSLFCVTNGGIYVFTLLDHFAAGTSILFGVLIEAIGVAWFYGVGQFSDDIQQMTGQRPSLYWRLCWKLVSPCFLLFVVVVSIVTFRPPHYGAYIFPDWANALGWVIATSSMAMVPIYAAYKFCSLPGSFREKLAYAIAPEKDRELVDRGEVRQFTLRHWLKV
Sequence of Sodium-dependent serotonin transporter (P31645 whole entry): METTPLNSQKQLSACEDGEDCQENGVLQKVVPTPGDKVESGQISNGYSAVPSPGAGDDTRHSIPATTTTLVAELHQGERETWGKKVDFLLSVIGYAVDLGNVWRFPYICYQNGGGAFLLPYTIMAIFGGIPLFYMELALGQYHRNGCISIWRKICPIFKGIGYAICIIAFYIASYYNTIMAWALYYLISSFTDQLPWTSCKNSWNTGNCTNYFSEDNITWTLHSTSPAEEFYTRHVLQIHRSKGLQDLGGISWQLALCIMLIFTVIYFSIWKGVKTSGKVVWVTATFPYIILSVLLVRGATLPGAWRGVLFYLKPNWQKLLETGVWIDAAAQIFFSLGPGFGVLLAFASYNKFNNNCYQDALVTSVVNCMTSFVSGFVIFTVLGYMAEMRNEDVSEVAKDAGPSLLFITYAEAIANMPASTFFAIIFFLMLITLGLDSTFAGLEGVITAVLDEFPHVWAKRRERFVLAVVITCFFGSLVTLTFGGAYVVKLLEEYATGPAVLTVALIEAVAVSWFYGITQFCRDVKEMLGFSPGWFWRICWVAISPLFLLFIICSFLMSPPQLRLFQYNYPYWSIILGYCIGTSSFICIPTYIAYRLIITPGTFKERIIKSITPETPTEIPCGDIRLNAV
Sequence of Sodium-dependent noradrenaline transporter (P23975 whole entry): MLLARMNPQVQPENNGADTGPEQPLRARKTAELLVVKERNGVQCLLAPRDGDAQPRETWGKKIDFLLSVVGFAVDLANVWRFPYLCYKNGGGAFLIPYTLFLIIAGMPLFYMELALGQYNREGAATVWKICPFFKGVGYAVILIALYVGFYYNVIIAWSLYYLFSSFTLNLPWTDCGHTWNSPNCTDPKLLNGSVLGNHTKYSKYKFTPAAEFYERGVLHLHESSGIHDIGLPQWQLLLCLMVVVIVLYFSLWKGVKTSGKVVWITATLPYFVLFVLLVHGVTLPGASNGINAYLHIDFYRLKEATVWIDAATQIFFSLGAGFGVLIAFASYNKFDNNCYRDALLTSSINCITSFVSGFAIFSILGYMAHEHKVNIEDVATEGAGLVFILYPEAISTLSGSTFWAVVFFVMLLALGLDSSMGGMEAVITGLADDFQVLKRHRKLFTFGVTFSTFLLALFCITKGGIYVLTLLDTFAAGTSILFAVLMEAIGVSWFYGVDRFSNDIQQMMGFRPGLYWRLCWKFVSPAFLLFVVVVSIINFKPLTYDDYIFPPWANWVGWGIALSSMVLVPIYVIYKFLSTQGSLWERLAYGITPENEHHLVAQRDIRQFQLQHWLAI
Description for physchem: Dissociation constant, pKa of the compound

Compound	IC50 [1]	IC50 [2]	IC50 [3]	also measured
C=CCN(CC)C(=O)[C@@]1(c2ccc3c(c2)CCO3)C[C@H]1CN	0.018 µM	0.43 µM	> 10 µM	–
C=CCN(CC)C(=O)[C@@]1(c2ccc3c(c2)OCO3)C[C@H]1CN	0.0071 µM	0.15 µM	> 10 µM	–
CNCC[C@@H](Oc1ccccc1C)c1ccccc1 [ATOMOXETINE]	–	–	–	logD [4]: 0.8; half-life [5]: 8 h; logP [6]: 3.5; CLhep predicted [7]: 0.858 L/h/kg; bioavailability (clinical): 85%
C=CCN(CC)C(=O)C1(c2ccccc2)C(CN)C1c1ccccc1 (racemic)	> 10 µM	3.4 µM	> 10 µM	–
CCN(CC)C(=O)C1(c2ccccc2)CC1(C)CN (racemic)	> 10 µM	6.9 µM	> 10 µM	–
NC[C@@H]1C[C@@]1(C(=O)N1CCc2sccc2C1)c1ccc2c(c1)OCO2	0.0094 µM	0.014 µM	> 10 µM	–
CCN(CC)C(=O)C1(c2ccccc2)CC1CN (racemic)	–	–	–	logD [4]: 0; CL renal [8]: 350 mL/min
CCN(CC)C(=O)[C@@]1(c2ccc3c(c2)OCO3)C[C@H]1CN	0.012 µM	0.48 µM	> 10 µM	logD [4]: 0.4; logP [6]: 1.7; CLhep predicted [7]: 0.474 L/h/kg; Papp [9]: 47 nm/s; pKa (physchem): 9.6
C#CCN(CC#C)C(=O)[C@@]1(c2ccc3c(c2)OCO3)C[C@H]1CN	0.0076 µM	0.049 µM	4.3 µM	–
C#CCN(CC#C)C(=O)[C@@]1(c2ccc3c(c2)CCO3)C[C@H]1CN	0.017 µM	0.145 µM	> 10 µM	–
C=CCN(CC#CC)C(=O)[C@@]1(c2ccc3c(c2)CCO3)C[C@H]1CN	0.04 µM	0.21 µM	> 10 µM	–
C#CCN(CC=C)C(=O)[C@@]1(c2ccc3c(c2)CCO3)C[C@H]1CN	0.014 µM	0.13 µM	> 10 µM	–
CCN(CC)C(=O)[C@@]1(c2ccc3sccc3c2)C[C@H]1CN	0.047 µM	1.1 µM	1.3 µM	–
C=CCN(CC#CC)C(=O)[C@@]1(c2ccc3c(c2)OCO3)C[C@H]1CN	0.015 µM	0.064 µM	> 10 µM	–
CCN(CC)C(=O)[C@@]1(c2ccc3c(c2)CCO3)C[C@H]1CN	0.16 µM	2.1 µM	> 10 µM	–
CCN(CC)C(=O)[C@@]1(c2cccc(F)c2)C[C@H]1CN	0.073 µM	0.37 µM	> 10 µM	–
C=C(F)CN(C)C(=O)[C@@]1(c2ccc3c(c2)OCCO3)C[C@H]1CN	0.0081 µM	0.1 µM	> 10 µM	–
CCN(CC1CC1)C(=O)[C@@]1(c2ccc3c(c2)OCCO3)C[C@H]1CN	0.0071 µM	0.54 µM	> 10 µM	–
NCC1C(c2ccccc2)C1(C(=O)N1CCc2ccccc21)c1ccccc1 (racemic)	> 10 µM	0.56 µM	4.3 µM	–
NC[C@@H]1C[C@@]1(C(=O)C1NCc2ccccc21)c1ccc2c(c1)OCO2 (stereo partly drawn)	0.02 µM	0.077 µM	3.6 µM	–
CCN(CC)C(=O)C1(c2ccccc2)C(CN)C1(C)C (racemic)	> 10 µM	> 10 µM	4.5 µM	–
CCN(CC)C(=O)[C@@]1(c2ccccc2)C[C@H]1CN [LEVOMILNACIPRAN]	–	–	–	logD [4]: -0.2; logP [6]: 1.6; CLhep predicted [7]: 0.3 L/h/kg
CCN(CC)C(=O)[C@@]1(c2ccc3c(c2)CCC3)C[C@H]1CN	0.16 µM	0.48 µM	> 10 µM	–
CCN(CC)C(=O)[C@@]1(c2ccc3occc3c2)C[C@H]1CN	0.047 µM	0.28 µM	> 10 µM	–
CC1(C)C(CN)C1(C(=O)N1CCc2ccccc21)c1ccccc1 (racemic)	> 10 µM	> 10 µM	> 10 µM	–
C=CCN(CCC)C(=O)[C@@]1(c2ccc3c(c2)CCO3)C[C@H]1CN	0.021 µM	1.7 µM	> 10 µM	–
C=CCN(CC)C(=O)C1(c2ccccc2)C(CN)C1(C)C (racemic)	6.4 µM	> 10 µM	> 10 µM	–
CC#CCN(CCC)C(=O)[C@@]1(c2ccc3c(c2)CCO3)C[C@H]1CN	0.08 µM	0.46 µM	> 10 µM	–
CCN(CC)C(=O)C1(c2ccccc2)C(CN)C1c1ccccc1 (racemic)	> 10 µM	6.4 µM	> 10 µM	–

Continued by falling IC50 [1], values first:

IC50 [1]	IC50 [2]	IC50 [3]	Compound	also measured
0.007 µM	0.058 µM	> 10 µM	C=CCN(CC=C)C(=O)[C@@]1(c2ccc3c(c2)OCO3)C[C@H]1CN	–
0.0065 µM	0.026 µM	3.6 µM	NC[C@@H]1C[C@@]1(C(=O)N1CCc2ccccc2C1)c1ccc2c(c1)OCO2	–
0.0063 µM	0.14 µM	> 10 µM	CCN(CC)C(=O)[C@@]1(c2ccc3c(c2)OCCO3)C[C@H]1CN	CLhep predicted [7]: 0.264 L/h/kg
0.0059 µM	0.125 µM	> 10 µM	C#CCN(CC)C(=O)[C@@]1(c2ccc3c(c2)OCCO3)C[C@H]1CN	–
0.0058 µM	0.32 µM	5.1 µM	NC[C@@H]1C[C@@]1(C(=O)N1CCOc2ccccc21)c1ccc2c(c1)OCO2	–
0.0052 µM	0.112 µM	> 10 µM	C=C(F)CN(CC)C(=O)[C@@]1(c2ccc3c(c2)OCCO3)C[C@H]1CN	–
0.0045 µM	0.27 µM	> 10 µM	C=CCN(CC=C)C(=O)[C@@]1(c2ccc3c(c2)CCO3)C[C@H]1CN	–
0.0044 µM	0.16 µM	> 10 µM	C#CCN(C(=O)[C@@]1(c2ccc3c(c2)OCCO3)C[C@H]1CN)C1CC1	–
0.0042 µM	0.028 µM	0.64 µM	NC[C@@H]1C[C@@]1(C(=O)N1CCc2ccccc21)c1ccc2c(c1)OCO2	–
0.004 µM	0.054 µM	> 10 µM	C#CCN(CC(=C)F)C(=O)[C@@]1(c2ccc3c(c2)OCCO3)C[C@H]1CN	–
0.0039 µM	0.21 µM	> 10 µM	C#CCN(CC1CC1)C(=O)[C@@]1(c2ccc3c(c2)OCCO3)C[C@H]1CN	–
0.0035 µM	0.032 µM	6.3 µM	C=CCN(CC=C)C(=O)[C@@]1(c2ccc3c(c2)OCCO3)C[C@H]1CN	CLhep predicted [7]: 0.486 L/h/kg
0.0032 µM	0.039 µM	2.9 µM	C=CCN(CC(=C)F)C(=O)[C@@]1(c2ccc3c(c2)OCCO3)C[C@H]1CN	–
0.0029 µM	0.065 µM	> 10 µM	C=CCN(CC)C(=O)[C@@]1(c2ccc3c(c2)OCCO3)C[C@H]1CN	CLhep predicted [7]: 0.528 L/h/kg
0.0017 µM	0.025 µM	> 10 µM	C#CCN(CC#C)C(=O)[C@@]1(c2ccc3c(c2)OCCO3)C[C@H]1CN	CLhep predicted [7]: 0.474 L/h/kg; Papp [9]: 52 nm/s
